Test results: ChEMBL document CHEMBL1629706 (Antimicrob Agents Chemother, 2010)
Values belong to the molecule of their own block, whether it stands above or below them.

What was measured:
[1] = test system: Plasmodium falciparum; test: Antimalarial activity against Plasmodium falciparum; format: functional, organism-based
[2] = test system: Plasmodium falciparum; test: Antimalarial activity against Plasmodium falciparum harboring 1 DNNND repeat; format: functional, organism-based
[3] = test system: Plasmodium falciparum; test: Antimalarial activity against Plasmodium falciparum harboring 3 DNNND repeat; format: functional, organism-based
[4] = test system: Plasmodium falciparum; test: Antimalarial activity against Plasmodium falciparum harboring pfcrt-76 mutant gene; format: functional, organism-based
[5] = test system: Plasmodium falciparum; test: Antimalarial activity against Plasmodium falciparum harboring pfmdr1-86 mutant gene; format: functional, organism-based
[6] = test system: Plasmodium falciparum; test: Antimalarial activity against Plasmodium falciparum harboring pfmdr1-86 mutant gene with 2 DNNND repeat; format: functional, organism-based
[7] = test system: Plasmodium falciparum; test: Antimalarial activity against Plasmodium falciparum harboring pfcrt-76 mutant gene with 2 DNNND repeat; format: functional, organism-based
[8] = test system: Plasmodium falciparum; test: microbe, parasite or virus in culture; conditions: isolate AK183
Description: Antimalarial activity against Plasmodium falciparum isolate AK183

[9] = test system: Plasmodium falciparum; test: microbe, parasite or virus in culture; conditions: isolate 8885
Description: Antimalarial activity against Plasmodium falciparum isolate 8885

[10] = test system: Plasmodium falciparum; test: microbe, parasite or virus in culture; conditions: isolate 9067
Description: Antimalarial activity against Plasmodium falciparum isolate 9067

[11] = test system: Plasmodium falciparum; test: microbe, parasite or virus in culture; conditions: isolate AK150 D-42
Description: Antimalarial activity against Plasmodium falciparum isolate AK150 D-42

[12] = test system: Plasmodium falciparum; test: microbe, parasite or virus in culture; conditions: isolate AK062
Description: Antimalarial activity against Plasmodium falciparum isolate AK062

[13] = test system: Plasmodium falciparum; test: microbe, parasite or virus in culture; conditions: isolate AK152 D-56
Description: Antimalarial activity against Plasmodium falciparum isolate AK152 D-56

[14] = test system: Plasmodium falciparum; test: microbe, parasite or virus in culture; conditions: isolate AK167
Description: Antimalarial activity against Plasmodium falciparum isolate AK167

[15] = test system: Plasmodium falciparum; test: microbe, parasite or virus in culture; conditions: isolate AK222
Description: Antimalarial activity against Plasmodium falciparum isolate AK222

[16] = test system: Plasmodium falciparum; test: microbe, parasite or virus in culture; conditions: isolate AK158
Description: Antimalarial activity against Plasmodium falciparum isolate AK158

[17] = test system: Plasmodium falciparum; test: microbe, parasite or virus in culture; conditions: isolate AK249
Description: Antimalarial activity against Plasmodium falciparum isolate AK249

[18] = test system: Plasmodium falciparum; test: microbe, parasite or virus in culture; conditions: isolate CDA-1553
Description: Antimalarial activity against Plasmodium falciparum isolate CDA-1553

[19] = test system: Plasmodium falciparum; test: microbe, parasite or virus in culture; conditions: 3D7
Description: Antimalarial activity against Plasmodium falciparum 3D7

[20] = test system: Plasmodium falciparum; test: microbe, parasite or virus in culture; conditions: isolate 8966
Description: Antimalarial activity against Plasmodium falciparum isolate 8966

[21] = test system: Plasmodium falciparum; test: microbe, parasite or virus in culture; conditions: isolate AK033 D-49
Description: Antimalarial activity against Plasmodium falciparum isolate AK033 D-49

[22] = test system: Plasmodium falciparum; test: microbe, parasite or virus in culture; conditions: isolate AK022D-0
Description: Antimalarial activity against Plasmodium falciparum isolate AK022D-0

[23] = test system: Plasmodium falciparum; test: microbe, parasite or virus in culture; conditions: isolate 9070
Description: Antimalarial activity against Plasmodium falciparum isolate 9070

[24] = test system: Plasmodium falciparum; test: microbe, parasite or virus in culture; conditions: isolate AK033 D-0
Description: Antimalarial activity against Plasmodium falciparum isolate AK033 D-0

[25] = test system: Plasmodium falciparum; test: microbe, parasite or virus in culture; conditions: isolate 8968
Description: Antimalarial activity against Plasmodium falciparum isolate 8968

[26] = test system: Plasmodium falciparum; test: microbe, parasite or virus in culture; conditions: isolate AK022 D-28
Description: Antimalarial activity against Plasmodium falciparum isolate AK022 D-28

[27] = test system: Plasmodium falciparum; test: microbe, parasite or virus in culture; conditions: isolate 8973
Description: Antimalarial activity against Plasmodium falciparum isolate 8973

[28] = test system: Plasmodium falciparum; test: microbe, parasite or virus in culture
Description: Antimalarial activity against Plasmodium falciparum harboring 2 DNNND repeat

[29] = test system: Plasmodium falciparum; test: microbe, parasite or virus in culture; remark: listed apart in the source
Description: Antimalarial activity against Plasmodium falciparum harboring pfmdr1 gene

[30] = test system: Plasmodium falciparum; test: microbe, parasite or virus in culture; remark: listed apart in the source
Description: Antimalarial activity against Plasmodium falciparum harboring pfmdr1 gene with 2 DNNND repeat

IC50 [1]: 1 nM
SMILES: C[C@H]1[C@@H](O)O[C@@H]2O[C@@]3(C)CC[C@H]4[C@H](C)CC[C@@H]1[C@@]24OO3 [ARTENIMOL]

SMILES: Clc1ccc2c(N3CCN(CCCN4CCN(c5ccnc6cc(Cl)ccc56)CC4)CC3)ccnc2c1 [PIPERAQUINE]
IC50 [1]: 56 nM

SMILES: C=C[C@H]1CN2CC[C@H]1C[C@H]2[C@H](O)c1ccnc2ccc(OC)cc12 [QUININE]
IC90 [2]: 157 nM
IC50 [3]: 45 nM
IC90 [3]: 125 nM
IC50 [4]: 164 nM
IC50 [5]: 208 nM
IC50 [6]: 249 nM
IC50 [7]: 234 nM
IC50 [8]: 73.9 nM
IC50 [9]: 78.2 nM
IC50 [10]: 80.1 nM
IC50 [11]: 91.6 nM
IC50 [12]: 182 nM
IC50 [13]: 208 nM
IC50 [14]: 227 nM
IC50 [15]: 210 nM
IC50 [16]: 234 nM
IC50 [17]: 270 nM
IC50 [18]: 333 nM
IC50 [19]: 27.1 nM
IC50 [20]: 55.8 nM
IC50 [21]: 54.1 nM
IC50 [22]: 42.4 nM
IC50 [23]: 41.5 nM
IC50 [24]: 32.8 nM
IC50 [25]: 30.6 nM
IC50 [26]: 22 nM
IC50 [27]: 20 nM
IC50 [28]: 227 nM
IC50 [29]: 74 nM
IC50 [30]: 92 nM

SMILES: CCCCN(CCCC)CC(O)c1cc(Cl)cc2c1-c1ccc(Cl)cc1/C2=C/c1ccc(Cl)cc1 (stereo not drawn) [LUMEFANTRINE]
IC50 [1]: 56 nM
